Several values for one entry are separate records, joined by “and”; a condition that tells them apart may be missing. Identical values can stand only once. Entries after “also recorded” stand apart in the source; their conditions may differ.
Columns and labels:
RAW264.7 cells = assay: NO production inhibition test (LPS, Griess Method); type: cell-based, mouse
Description: A 200 microliter each of the continuously-cultivated RAW264.7 cells (10^6 cells/mL) should be seeded into 48-well plate. After 24 hours, replace the culture medium with a serum-free culture medium. Then, add the LPS (final concentration: 10 microgram/mL) and samples (Examples 1 & 2), and then cultivate for 24 hours. Collect the supernatant (100 microliter) and determine the amount of NO by the Griess Method.

adjuvant arthritis [1] = assay: Adjuvant arthritis: X-ray determination of tarsus and interphalangeal articulation (radiographic index); type: in vivo, rats; conditions: 0.5 mg/kg
Description: Firstly, subcutaneously administer the adjuvant to the right tarsus of the rats under the following condition so that the arthritis is caused in the mice. On the second day that the arthritis is induced, orally administer the red ginger extract to the rats for four consecutive weeks by the following method, and regularly observe the tarsus edema of the rats and the anti-inflammatory effect of the test substance. 2. Firstly, obtain 28 mice (7-week-old, SD (CrjBgi:CD) IGS mice, male SPF) from ORIENT CO., LTD. Then, quarantine and naturalize the mice for more than 7 days. After observing the mice during the period of naturalization and quarantine, use the mice that are alive and which have no problems in the weight and general status. When the mice were grouped, the weight ranged from 279.3 to 328.7 g. When the inflammation was induced, the weight ranged from 283.7 to 333.9 g. When the autopsy was conducted, the weight ranged from 293.4 g to 440.8 g. 3. Administration The test substance was forcibly administered to the mice through a stomach sonde or syringe once a day for a period of 28 days after the inflammation was induced. As shown in the chart below, there are 4 groups, and each group has seven examples (i.e. 7 mice). The test substance was orally administered to each mouse for 28 days from the day after the inflammation was induced. During the period when the test substance was administered, the edema of the right tarsus of each mouse was X-rayed twice a week. From the day after the test was completed, the right and left tarsuses of each mouse were X-rayed twice a week, and the effect of the test substance on the bone was verified. The solution (1.0 mg/0.1 mL) was made from 1 mL of FREUND'S INCOMPLETE ADJUTANT (FIA) and 10 mg of killed bacteria (fungus body)—MYCOBACTERIUM BUTYRICUM (Lot Ni. 5129117, Difco). The FIA and the killed bacteria were sufficiently suspended, and then approx. […] of the solution was administered to the subcutaneous of the footpads of the right, hind leg of each mouse. On the 27th day after the administration was begun, the edema was taken out. The hind leg was affixed with the neutral buffered formalin fixative (10%), and the image of the tarsus articulation area, including the interphalangeal articulation, was taken by a soft X-ray. The tarsus articulation and the interphalangeal articulation were verified by the degrees between −(normal status) and 5+(most serious status). A radiographic index was obtained by the method as shown in Chart 2, below. Add up the figures to determine the severity of the articular destruction. [table]

adjuvant arthritis [2] = assay: Preventive effect on adjuvant arthritis: edema volume of the tarsus (footpad volume); type: in vivo, rats
Description: Firstly, subcutaneously administer the adjuvant to the right tarsus of the rats under the following condition so that the arthritis is caused in the mice. On the second day that the arthritis is induced, orally administer the red ginger extract to the rats for four consecutive weeks by the following method, and regularly observe the tarsus edema of the rats and the anti-inflammatory effect of the test substance. Weigh at once the two-day doses of the red ginger extract as the test substance described in Example 1, and use the red ginger extract suspended with the 0.5% CMC-Na. At this time, prepare the high-dose test substance (10 mg/5 mL/kg). Then, […] the liquid to prepare the low-dose test substance (1 mg/5 mL/kg). Weigh the necessary amount of Indomethacin (Lot No. 122K0718, Sigma-Aldrich, Inc.) which is commercially available. Then prepare freshly the positive control substance with the injection solvent until it becomes 0.5 mg/5 mL/kg. Then, dispose of it after all the administrations have been completed. 2. Firstly, obtain 28 mice (7-week-old, SD (CrjBgi:CD) IGS mice, male SPF) from ORIENT CO., LTD. Then, quarantine and naturalize the mice for more than 7 days. After observing the mice during the period of naturalization and quarantine, use the mice that are alive and which have no problems in the weight and general status. When the mice were grouped, the weight ranged from 279.3 to 328.7 g. When the inflammation was induced, the weight ranged from 283.7 to 333.9 g. When the autopsy was conducted, the weight ranged from 293.4 g to 440.8 g. 3. Administration The test substance was forcibly administered to the mice through a stomach sonde or syringe once a day for a period of 28 days after the inflammation was induced. As shown in the chart below, there are 4 groups, and each group has seven examples (i.e. 7 mice). The test substance was orally administered to each mouse for 28 days from the day after the inflammation was induced. During the period when the test substance was administered, the edema of the right tarsus of each mouse was X-rayed twice a week. From the day after the test was completed, the right and left tarsuses of each mouse were X-rayed twice a week, and the effect of the test substance on the bone was verified. The solution (1.0 mg/0.1 mL) was made from 1 mL of FREUND'S INCOMPLETE ADJUTANT (FIA) and 10 mg of killed bacteria (fungus body)—MYCOBACTERIUM BUTYRICUM (Lot Ni. 5129117, Difco). The FIA and the killed bacteria were sufficiently suspended, and then approx. […] of the solution was administered to the subcutaneous of the footpads of the right, hind leg of each mouse. To verify the degree and the increase of the edema volume before and after the adjuvant was induced, the footpad volume of the right hind leg was measured by using Digital Pletysmometer, LE7500 (Panlab SL, Spain) twice each time immediately before the adjuvant was induced, and again on Days 3, 6, 10, 13, 17, 20, 24 and 27 after the adjuvant was induced. Each measured value was determined by Dunnet's Test using the Graphad Instat Program (Ver. 4.5, USA), and the significant difference test was conducted.

[3] = 1 μg/mL, LPS 10 microgram/mL, 24 hours, average ± SD
[4] = right leg, individual animals, listed as Indomet hacin
[5] = right leg, individual animals, listed as indomethacin

SMILES: CCCCCCCCC/C=C/C(=O)CCc1ccc(O)c(OC)c1 [Example 10-shogaol, 10-shogaol]
- Inhibition ratio (NO production) (RAW264.7 cells; 1 μg/mL): (23.4) %
- NO in supernatant (RAW264.7 cells; [3]): 2.78 ± 0.10 µM
- Inhibition ratio (NO production) (RAW264.7 cells; 3 μg/mL): (18.5) %
- NO in supernatant (RAW264.7 cells; 3 μg/mL): 2.88 ± 0.11 µM
- Inhibition ratio (NO production) (RAW264.7 cells; 10 μg/mL): (24.4) %
- NO in supernatant (RAW264.7 cells; 10 μg/mL): 2.76 ± 0.10 µM
- Inhibition ratio (NO production) (RAW264.7 cells; 30 μg/mL): (28.3) %
- NO in supernatant (RAW264.7 cells; 30 μg/mL): 2.68 ± 0.70 µM
- Inhibition ratio (NO production) (RAW264.7 cells; 100 μg/mL): (31.2) %
- NO in supernatant (RAW264.7 cells; 100 μg/mL): 2.62 ± 0.71 µM

SMILES: COc1ccc2c(c1)c(CC(=O)O)c(C)n2C(=O)c1ccc(Cl)cc1 [Indomethacin]
- Degree of disorder compared to the vehicle group (adjuvant arthritis [1]): remarkably suppressed
- Result (X-ray determination) (adjuvant arthritis [1]; right leg, individual animals): 2+ (Moderate(−): 2+; 2points)
- Interphal angeal articulation: Bone destruction (adjuvant arthritis [1]; [4]): − (Normal: −; 0 point); also recorded: + (Mild: +; 1 point)
- Interphal angeal articulation: Periostitis (adjuvant arthritis [1]; [4]): + (Mild: +; 1 point); also recorded: − (Normal: −; 0 point)
- Interphal angeal articulation: Total (adjuvant arthritis [1]; [4]): 1 points (5×) and 0 points and 2 points
- Tarsus articulation: Bone destruction (adjuvant arthritis [1]; [4]): − (Normal: −; 0 point); also recorded: + (Mild: +; 1 point)
- Tarsus articulation: Periostitis (adjuvant arthritis [1]; [4]): 2+ (Moderate(−): 2+; 2points) (6×) and 3+ (Moderate(+): 3+; 3 ponts)
- Tarsus articulation: Total (adjuvant arthritis [1]; [4]): 2 points (2×) and 3 points (4×) and 4 points
- Interphal angeal articulation: Bone destruction (adjuvant arthritis [1]; [5]): + (Mild: +; 1 point)
- Interphal angeal articulation: Periostitis (adjuvant arthritis [1]; [5]): + (Mild: +; 1 point)
- Tarsus articulation: Bone destruction (adjuvant arthritis [1]; [5]): + (Mild: +; 1 point)
- Edema volume of the tarsus, right tarsus (adjuvant arthritis [2]; 0.5 mg/kg oral once a day, Day 0 (before induction)): 1.81 ± 0.07 mL
- Edema volume of the tarsus, right tarsus (adjuvant arthritis [2]; 0.5 mg/kg, Day 3): 3.35 ± 0.18 mL
- Edema volume of the tarsus, right tarsus (adjuvant arthritis [2]; 0.5 mg/kg, Day 3, listed as indomethacin): 3.35 mL
- Edema volume of the tarsus, right tarsus (adjuvant arthritis [2]; 0.5 mg/kg, Day 6): 3.69 ± 0.40 mL
- Edema volume of the tarsus, right tarsus (adjuvant arthritis [2]; 0.5 mg/kg, Day 10): 3.69 ± 0.36 mL
- Edema volume of the tarsus, right tarsus (adjuvant arthritis [2]; 0.5 mg/kg, Day 13): 3.40 ± 0.43 mL
- Edema volume of the tarsus, right tarsus (adjuvant arthritis [2]; 0.5 mg/kg, Day 17): 3.11 ± 0.59 mL
- Edema volume of the tarsus, right tarsus (adjuvant arthritis [2]; 0.5 mg/kg, Day 20): 3.18 ± 0.52 mL
- Edema volume of the tarsus, right tarsus (adjuvant arthritis [2]; 0.5 mg/kg, Day 24): 3.19 ± 0.51 mL
- Edema volume of the tarsus, right tarsus (adjuvant arthritis [2]; 0.5 mg/kg, Day 24, listed as indomethacin): 3.19 mL
- Edema volume of the tarsus, right tarsus (adjuvant arthritis [2]; 0.5 mg/kg, Day 27): 2.89 ± 0.34 mL

SMILES: CCCCCCC[C@H](O)CC(=O)CCc1ccc(O)c(OC)c1 [Example 8-gingerol, 8-gingerol]
- Inhibition ratio (NO production) (RAW264.7 cells; 1 μg/mL): (4.7) %
- NO in supernatant (RAW264.7 cells; [3]): 4.17 ± 0.27 µM
- Inhibition ratio (NO production) (RAW264.7 cells; 3 μg/mL): (7.7) %
- NO in supernatant (RAW264.7 cells; 3 μg/mL): 4.06 ± 0.24 µM
- Inhibition ratio (NO production) (RAW264.7 cells; 10 μg/mL): (13.3) %
- NO in supernatant (RAW264.7 cells; 10 μg/mL): 3.86 ± 0.32 µM
- Inhibition ratio (NO production) (RAW264.7 cells; 30 μg/mL): (20.7) %
- NO in supernatant (RAW264.7 cells; 30 μg/mL): 3.59 ± 0.21 µM
- Inhibition ratio (NO production) (RAW264.7 cells; 100 μg/mL): (31.5) %
- NO in supernatant (RAW264.7 cells; 100 μg/mL): 3.20 ± 0.17 µM

SMILES: CCC[C@H](O)CC(=O)CCc1ccc(O)c(OC)c1 [Example 4-gingerol, 4-gingerol]
- NO in supernatant (RAW264.7 cells; [3]): 4.98 ± 0.22 µM
- NO in supernatant (RAW264.7 cells; 3 μg/mL): 5.10 ± 0.24 µM
- NO in supernatant (RAW264.7 cells; 10 μg/mL): 4.98 ± 0.22 µM
- NO in supernatant (RAW264.7 cells; 30 μg/mL): 5.03 ± 0.45 µM
- NO in supernatant (RAW264.7 cells; 100 μg/mL): 4.98 ± 0.26 µM

SMILES: CCCCCCCCC[C@H](O)CC(=O)CCc1ccc(O)c(OC)c1 [Example 10-gingerol, 10-gingerol]
- NO in supernatant (RAW264.7 cells; [3]): 4.44 ± 0.27 µM
- NO in supernatant (RAW264.7 cells; 3 μg/mL): 4.32 ± 0.16 µM
- NO in supernatant (RAW264.7 cells; 10 μg/mL): 4.33 ± 0.50 µM
- NO in supernatant (RAW264.7 cells; 30 μg/mL): 4.28 ± 0.72 µM
- Inhibition ratio (NO production) (RAW264.7 cells; 100 μg/mL): (21.1) %
- NO in supernatant (RAW264.7 cells; 100 μg/mL): 3.55 ± 0.08 µM

SMILES: CCCCC/C=C/C(=O)CCc1ccc(O)c(OC)c1 [Example 6-shogaol, 6-shogaol]
- NO in supernatant (RAW264.7 cells; [3]): 3.81 ± 0.29 µM
- NO in supernatant (RAW264.7 cells; 3 μg/mL): 3.60 ± 0.29 µM
- Inhibition ratio (NO production) (RAW264.7 cells; 10 μg/mL): (13.6) %
- NO in supernatant (RAW264.7 cells; 10 μg/mL): 3.21 ± 0.31 µM
- Inhibition ratio (NO production) (RAW264.7 cells; 30 μg/mL): (29.8) %
- NO in supernatant (RAW264.7 cells; 30 μg/mL): 2.79 ± 0.09 µM
- Inhibition ratio (NO production) (RAW264.7 cells; 100 μg/mL): (90.7) %
- NO in supernatant (RAW264.7 cells; 100 μg/mL): 1.22 ± 0.04 µM
- Effect on NO production among the ingredients (RAW264.7 cells; compared with the other components): comparatively strong effect
